Each structure is given as a SMILES string.

For one data set, the system named is HIV-1 LTR in U1 cells. Kind of data set: HIV-1 LTR induction assay, TAR RNA qPCR in U1 cells. The conditions noted are these: 15026 4 μM.
Another data set deals with JSC-1 PYFP cells. The conditions noted are these: U0126 10 μM, 40 h.
A further data set has as its system HIV-1 LTR in ACH2 cells. Kind of data set: HIV-1 LTR induction assay, TAR RNA qPCR in ACH2 cells. Particulars: 15026 4 μM.
Data set [1] relates to HIV-1 LTR in J-Lat A72 cells. As to the kind of experiment: HIV-1 LTR assay, GFP expression in J-LAT A72 cells. The conditions noted are these: for HIV-1 LTR induction by other antimicrotubule agents: taxol 0.8 μM, vinblastine 0.8 μM, ERK dependent (U0126); for reduction of HIV LTR induction by 15026 compared to DMSO control: 15026 0.8 μM.
The subject of the next data set is KSHV RTA in JSC-1 cells. It counts as cell-based.
For data set [2], the system named is KSHV RTA in JSC-1 PYFP cells.
The next data set relates to JSC-1 cells. As to the kind of experiment: Cell viability assay (CellTiter-Glo). The conditions noted are these: for GCV cytotoxicity after pre-treatment with compound: pre-treatment 24 h (UCLB-15026 800 nM, taxol 80 nM), then GCV 20 or 100 μM, 48 and 72 h.
The test system of data set [3] is KSHV ORF 29 in JSC-1 cells. As to the kind of experiment: Semi-quantitative RT-PCR of KSHV late gene ORF 29 in JSC-1. The conditions noted are these: different concentrations. The data set is classed as cell-based. The source says: Briefly, RNA was extracted from 2×10^6 cells with TRIzol (Invitrogen) and treated with DNase (Ambion), followed by phenol extraction and ethanol precipitation. Serial dilution (3×10-fold) of oligonucleotide dT (Qiagen)-primed cDNA was used for PCR amplification (Promega) of KSHV ORF 29 using forward ([…]; SEQ ID NO. 1) and reverse ([…]; SEQ ID NO. 2) primers. All samples were normalized by PCR amplification of beta-2 microglobulin (β2M) using serially diluted cDNA with forward ([…]; SEQ ID NO. 3) and reverse ([…]; SEQ ID NO. 4) primers. The PCR cycle consisting of 95° C. for 30 seconds, 50° C. for 30 seconds, and 72° C. for 30 seconds was repeated 36 times for ORF 29, and 28 times for β2M. Both set of primers amplify across splice junction and the sizes (in bp) of the expected products are: ORF 29 (cDNA—399, DNA—3650) and β2M (cDNA—301, DNA—2178).

In data set [4] the test system is KSHV RTA in JSC-1 PLuc cells. The data set is classed as cell-based.
For data set [5], the system named is KSHV RTA in BCBL-1 PLuc cells. It counts as cell-based.
Data set [6] relates to microtubule network in JSC-1 cells. As to the kind of experiment: Confocal immunofluorescence microscopy of microtubule network. The data set is classed as cell-based. Particulars: 100 μM, 16 h. The method, then:
JSC-1 cells were grown on coverslips coated with […] (Sigma) with DMSO or UCLB-15026 (100 μM) for 16 h. JSC-1 cells were then fixed in 3% paraformaldehyde, rinsed and permeabilized in 0.02% Triton-PBS. This was followed by blocking in 2% FCS-PBS, staining with anti-tubulin antibody (Sigma), washed, and then incubated with Alexa-488 conjugated goat anti-mouse secondary antibody (Molecular Probes) before being mounted onto slides using VectaShield mounting medium containing DAPI. Images were taken using confocal microscope (Leica).

The subject of data set [7] is HIV-1 LTR of subtype A in LGIT cells. Kind of data set: HIV-1 LTR induction, GFP in LGIT cells, LTR subtype A. The conditions noted are these: 24 hours; ERK-dependent (with or without U0126 10 μM).
A further data set relates to cells (cell cycle). Particulars: reported for the compound; cited from earlier work.
The test system of a further data set is tubulin. Particulars: reported, reference 21; read-out: IC50 inhibiting tubulin polymerization; cited from earlier work.
Data set [8] concerns HIV-1 LTR of subtype C in LGIT cells. Kind of data set: HIV-1 LTR induction, GFP in LGIT cells, LTR subtype C. Particulars: 24 hours; ERK-dependent (with or without U0126 10 μM).
The test system of data set [9] is HIV-1 LTR in PBMCs from HIV-1 positive individuals. As to the kind of experiment: Ex vivo HIV-1 LTR induction assay, TAR RNA qPCR in PBMCs from HIV-1 positive individuals. The conditions noted are these: 100 μM, 24 h. The data set is classed as cell-based.
Data set [10] relates to HIV-1 LTR of subtype A/G in LGIT cells. Kind of data set: HIV-1 LTR induction, GFP in LGIT cells, LTR subtype A/G. The conditions noted are these: 24 hours; ERK-dependent (with or without U0126 10 μM).
In data set [11] the test system is KSHV (rKSHV.219) in JSC-1 cells. It counts as cell-based.

Consider `N#CC(=C(/N)Sc1ccccc1N)/C(C#N)=C(\N)Sc1ccccc1N` [U0126], for which the “effect of ERK inhibitor on LTR induction by 15026 (TAR RNA)” value in the data set on HIV-1 LTR in U1 cells (U0126 10 μM) and with HIV-1 LTR in ACH2 cells (U0126 10 μM) was “inhibited 15026 activity” throughout. In the data set on JSC-1 PYFP cells, the “cell viability (trypan blue exclusion)” value was “no significant effect on cell viability”. Also, the “effect of ERK inhibitor on LTR induction by 15026 (GFP)” value in data set [1] (U0126 10 μM, 15026 4 μM) is on record as “inhibited 15026 activity”.
On to `CCCC(=O)[O-].[Na+]` [SB, sodium butyrate], for which the “KSHV RTA induction and induction kinetics (western blot)” value in the data set with KSHV RTA in JSC-1 cells is on record as “delayed-kinetics”.
On to `CC[C@]1(O)C[C@@H]2CN(CCc3c([nH]c4ccccc34)[C@@](C(=O)OC)(c3cc4c(cc3OC)N(C)[C@H]3[C@@](O)(C(=O)OC)[C@H](OC(C)=O)[C@]5(CC)C=CCN6CC[C@]43[C@@H]65)C2)C1` [vinblastine], for which the “KSHV RTA induction by other antimicrotubule agents” value in data set [2] was “can induce”. For the same compound, the “HIV-1 LTR induction by other antimicrotubule agents” value (“HIV-1 LTR induction” for short) in [1] (genistein 100 μM) is “can induce”.
For the compound `Nc1nc(O)c2ncn(COC(CO)CO)c2n1` [GCV, ganciclovir], in the data set with JSC-1 cells (DMSO 24 h, then GCV 20 μM or 100 μM, 24, 48, 72 h), the “effect of GCV alone on JSC-1 proliferation” value is on record as “no detrimental effect”.
In the case of `CC(=O)O[C@H]1C(=O)[C@@]2(C)[C@H]([C@H](OC(=O)c3ccccc3)[C@]3(O)C[C@H](OC(=O)[C@H](O)[C@@H](NC(=O)c4ccccc4)c4ccccc4)C(C)=C1C3(C)C)[C@]1(OC(C)=O)CO[C@@H]1C[C@@H]2O` [taxol, paclitaxel], in data set [2], the “KSHV reactivation (% YFP-positive cells normalized to TPA control)” value was “reactivated KSHV to similar levels” and the “concentration range of half their maximal activities (KSHV reactivation)” value was “nanomolar range”. For the same compound, the “expression of KSHV late gene ORF 29” value in data set [3] was “dose-dependent expression”. For the same compound, in data set [4], the “RTA expression (% RLU normalized to TPA control/10^5 cells)” value is listed as “activate RTA expression”. Besides, in the data set with JSC-1 cells, the “GCV cytotoxicity after pre-treatment with compound” value was “small but statistically significant increase in cell cytotoxicity”. Besides, the “RTA induction (% RLU normalized to TPA control/10^5 cells)” value in [5] is “induced RTA”. For the same compound, the “HIV-1 LTR induction” value in [1] (genistein 100 μM) is on record as “induce transcriptional activities”.
Regarding `O=S(=O)(NCCNC/C=C/c1ccc(Br)cc1)c1cccc2cnccc12` [H89], in data set [2] (15026 0.8 μM), the “reduction of KSHV RTA induction by 15026 compared to DMSO control” value was 35%. In data set [1], the “reduction of HIV LTR induction by 15026 compared to DMSO control” value amounted to 80%.
For `Nc1ncnc2c1ncn2[C@@H]1O[C@@H]2COP(O)(=S)O[C@H]2[C@H]1O` (some centres unmarked) [Rp-cAMP], the “reduction of HIV LTR induction by 15026 compared to DMSO control” value in [1] is listed as “about 40%”.
On to `COc1ccc(-c2csc3c2-n2cccc2C3=O)cc1` [UCLB-15026], for which, in [6], the “effect on microtubule network (anti-tubulin immunofluorescence)” value is “disrupts microtubule network”. The “GFP expression driven by LTR of subtype A” value in data set [7] is recorded as “induced GFP expression”. Also, in data set [2], the “KSHV reactivation (% YFP-positive cells normalized to TPA control)” value is given as “reactivated KSHV to similar levels” and the “concentration range of half their maximal activities (KSHV reactivation)” value is on record as “nanomolar range”. Also, the “expression of KSHV late gene ORF 29” value in data set [3] is on record as “dose-dependent expression”. For the same compound, in the data set with cells (cell cycle), the cell cycle effect entry was “accumulated in the G2/M phases of cell cycle”. Further, the IC50 in the data set on tubulin was 2900 nM. The “GFP expression driven by LTR of subtype C” value in data set [8] was “induced GFP expression”. The “HIV-1 LTR activity (TAR RNA expression)” value in the data set with HIV-1 LTR in U1 cells was “induced LTR activity”. The “TAR RNA copies compared with DMSO, three PBMC cultures” value in data set [9] is given as “higher TAR RNA copies in two out of three PBMC cultures”. Besides, in data set [9] (PBMC culture), the “TAR RNA copies compared with DMSO, volunteer 1” value is recorded as “about 5 fold” and the “TAR RNA copies compared with DMSO, volunteer 2” value is on record as “about 200 fold”. Moreover, the “RTA expression (% RLU normalized to TPA control/10^5 cells)” value in data set [4] is listed as “activate RTA expression”. Further, the “GCV cytotoxicity after pre-treatment with compound” value with JSC-1 cells was “enhanced GCV cytotoxicity”. In addition, the “RTA induction (% RLU normalized to TPA control/10^5 cells)” value in data set [5] is “induced RTA”. The “GFP expression driven by LTR of subtype A/G” value in data set [10] is “induced GFP expression”. Besides, in the data set on HIV-1 LTR in ACH2 cells, the “HIV-1 LTR activity (TAR RNA expression)” value is reported as “induced LTR activity”. Moreover, the “HIV-1 LTR activity (GFP expression)” value in data set [1] (15026 4 μM, 24 hours) is on record as “induced LTR activity”. In addition, the “LTR-mediated GFP expression” value in [1] (UCLB-15026 at different concentrations, 24 or 40 h) is on record as “substantially induced”.
Turning to `O=c1c(-c2ccc(O)cc2)coc2cc(O)cc(O)c12` [genistein], in data set [2], the “KSHV RTA induction by other antimicrotubule agents” value is reported as “can induce” and the “KSHV lytic cycle induction (% YFP-positive cells normalized to TPA)” value is reported as “can reactivate KSHV”. The “HIV-1 LTR activity (% GFP-positive cells normalized to TPA)” value in data set [1] (genistein 100 μM, 24 h post-treatment) was “induction of HIV-1 LTR activity”. Further, in data set [1] (genistein 100 μM), the “HIV-1 LTR induction” value was “can induce”.
Take `CCCCCCCCCCCCCC(=O)O[C@@H]1[C@@H](C)[C@@]2(O)[C@@H](C=C(CO)C[C@]3(O)C(=O)C(C)=C[C@@H]23)[C@@H]2C(C)(C)[C@]12OC(C)=O` [TPA, 12-O-tetradecanoyl-phorbol-13-acetate]: in the data set with KSHV RTA in JSC-1 cells, the “KSHV RTA induction and induction kinetics (western blot)” value was “immediate-kinetics”; the “exposure required for KSHV induction” value was below 1 h. In data set [11], the “% RFP-positive cells” value is given as −1.8%.

The values are drawn from US20130261137A1, “Methods, Compounds and Compositions Relating to Activating a Latent Virus” (ULC BUSINESS PLC, priority 2010, published 2013).
